Test results as given in ChEMBL document CHEMBL1157815, “Antiproliferative activity of withanolides against human breast cancer cell lines” (2010).

Assays:
Type in all cases: functional
MCF7 = test: Antiproliferative activity against human MCF7 cells expressing estrogen receptor after 48 hrs by SRB assay; conditions: MCF7, 48 h
T47D = test: Antiproliferative activity against human T47D cells expressing estrogen receptor after 48 hrs by SRB assay
SK-BR-3 = test: Antiproliferative activity against estrogen receptor deficient human SKBR3 cells after 48 hrs by SRB assay; conditions: SK-BR-3, 48 h
MDA-MB-231 = test: Antiproliferative activity against estrogen receptor deficient human MDA-MB-231 cells after 48 hrs by SRB assay; conditions: MDA-MB-231, 48 h
[1] = Antiproliferative activity against human MCF7/BUS cells expressing estrogen receptor after 48 hrs by SRB assay

Structure (SMILES) | GI50 (MCF7) | GI50 (T47D) | GI50 (SK-BR-3) | GI50 (MDA-MB-231) | GI50 [1]
CCO[C@@]12C[C@H]3[C@@H](C[C@@H](O)[C@@]4(Cl)CC=CC(=O)[C@]34C)[C@@H]3CC[C@@](O)([C@H](C)[C@@H]([C@@H]4O[C@H](O)[C@@]5(C)O[C@@]45C)O1)[C@]32C | 3.9 µM | 13 µM | 3.4 µM | 10 µM | 5.1 µM
CO[C@@]12C[C@@H]3c4c(O)cccc4[C@H](O)C[C@H]3[C@@H]3CC[C@@](O)([C@H](C)[C@@H]([C@@H]4OC(=O)C(C)=C4C)O1)[C@]32C | > 100 µM | > 100 µM | > 100 µM | > 100 µM | > 100 µM
CC1=C(C)C(=O)O[C@@H]([C@](C)(O)[C@]2(O)CC[C@@]3(O)[C@@H]4C[C@H]5O[C@]56[C@@H](O)C=CC(=O)[C@]6(C)[C@H]4CC[C@]23C)C1 | 1 µM | 2.2 µM | 1.7 µM | 2.1 µM | 1.1 µM
CCO[C@@]12C[C@H]3[C@@H](C[C@@H](O)[C@@]4(Cl)CC=CC(=O)[C@]34C)[C@@H]3CC[C@@](O)([C@H](C)[C@@H]([C@@H]4OC(=O)C(C)=C4C)O1)[C@]32C [12-O-ETHYLJABOROSALACTONE 42] | 3 µM | 3.9 µM | 2.5 µM | 3.7 µM | 3 µM
CO[C@@]12C[C@H]3[C@@H](C[C@H]4O[C@]45CC=CC(=O)[C@]35C)[C@@H]3CC[C@@](O)([C@@H]([C@H]4CC(C)=C(C)C(=O)O4)CO1)[C@]32C [12-O-METHYLJABOROSALACTONE 38] | 2.9 µM | 3.9 µM | 2 µM | 2.8 µM | 2.7 µM
CC[C@@]1(O)C(=O)OCc2c1cc1n(c2=O)Cc2cc3ccccc3nc2-1 [CAMPTOTHECIN] | 0.28 µM | 2 µM | 0.15 µM | 1.3 µM | 0.21 µM
O=c1[nH]cc(F)c(=O)[nH]1 [FLUOROURACIL] | 8.3 µM | 47 µM | 3 µM | 54 µM | 6.2 µM
C[C@]12CC[C@H]3C(=C1[C@H]1C[C@@]2(O)[C@](C)([C@H]2C[C@]4(C)O[C@]4(C)[C@H](O)O2)C1)C[C@@H](O)[C@@]1(O)CC=CC(=O)[C@]31C [JABOROSALACTOL20] | > 100 µM | > 100 µM | > 100 µM | > 100 µM | > 100 µM
C[C@@H]1[C@@H]([C@@H]2O[C@H](O)[C@@]3(C)O[C@@]23C)O[C@@]2(O)C[C@H]3[C@@H](C[C@H]4O[C@]45CC=CC(=O)[C@]35C)[C@@H]3CC[C@]1(O)[C@]32C [JABOROSALACTOL 24] | 3.6 µM | 6.5 µM | 2.3 µM | 8.7 µM | 2.6 µM
C[C@@H]1[C@@H]([C@@H]2O[C@H](O)[C@@]3(C)O[C@@]23C)O[C@@]2(O)C[C@H]3[C@@H](CC=C4CC=CC(=O)[C@@]43C)[C@@H]3CC[C@]1(O)[C@]32C [JABOROSALACTOL] | 14 µM | 30 µM | 18 µM | 19 µM | 18 µM
CC1=C(C)[C@]2(OC1=O)C(=O)C(C)=C1CC[C@H]3[C@@H]4C[C@H]5O[C@]56CC=CC(=O)[C@]6(C)[C@H]4C[C@@]2(O)[C@]13C [JABOROSALACTONE 1] | 3.2 µM | 3.4 µM | 2 µM | 2.5 µM | 3.3 µM
CC1=C(C)C(=O)O[C@@H]([C@H]2CO[C@@]3(O)C[C@H]4[C@@H](C[C@H]5O[C@]56CCCC(=O)[C@]46C)[C@@H]4CC[C@]2(O)[C@]43C)C1 [JABOROSALACTONE 39] | 25 µM | 38 µM | 34 µM | 35 µM | 29 µM
CC1=C(C)[C@H]([C@H]2O[C@@]3(O)C[C@H]4[C@@H](C[C@@H](O)[C@@]5(Cl)CC=CC(=O)[C@]45C)[C@@H]4CC[C@@](O)([C@@H]2C)[C@]43C)OC1=O [JABOROSALACTONE 42] | 2.4 µM | 3.5 µM | 2.5 µM | 3.2 µM | 2.6 µM
CC1=C(C)[C@H]([C@H]2O[C@@]3(O)C[C@@H]4c5c(O)cccc5[C@H](O)C[C@H]4[C@@H]4CC[C@@](O)([C@@H]2C)[C@]43C)OC1=O [JABOROSALACTONE 45] | > 100 µM | > 100 µM | > 100 µM | > 100 µM | > 100 µM
CC1=C(C)C(=O)O[C@]2(C1)O[C@@]1(O)C[C@H]3[C@@H](C[C@H]4O[C@]45CC=CC(=O)[C@]35C)[C@@H]3CC[C@@](O)([C@@H]2C)[C@]31C [JABOROSALACTONE 46] | 2.8 µM | 3.7 µM | 2.5 µM | 3.5 µM | 2.9 µM
CC1=C(C)[C@]2(OC1=O)[C@H](O)[C@@H](C)[C@]1(O)CC[C@H]3[C@@H]4CC=C5CC=CC(=O)[C@]5(C)[C@H]4C[C@@]2(O)[C@@]31C [JABOROSALACTONE P] | 35 µM | 61 µM | 29 µM | 49 µM | 33 µM
CC1=C(C)C(=O)O[C@@H]([C@H]2CO[C@@]3(O)C[C@H]4[C@@H](C[C@H]5O[C@]56CC=CC(=O)[C@]46C)[C@@H]4CC[C@]2(O)[C@]43C)C1 [JABOROSALACTONE] | 2.9 µM | 4.1 µM | 2.6 µM | 3.4 µM | 2.8 µM
CC1=C(C)[C@H]([C@H]2O[C@@]3(O)C[C@H]4[C@@H](C[C@@H](O)[C@@]5(O)CC=CC(=O)[C@]45C)[C@@H]4CC[C@@](O)([C@@H]2C)[C@]43C)OC1=O [JABOROTETROL] | > 100 µM | > 100 µM | > 100 µM | > 100 µM | > 100 µM
C[C@@H](C1=CC(=O)[C@H]2[C@@H]3C[C@H]4O[C@]45CC=CC(=O)[C@]5(C)[C@H]3CC[C@]12C)C1C[C@]2(C)O[C@]2(C)[C@H](O)O1 (stereo not given in full) [SALPICHROLIDE D] | 22 µM | 17 µM | 21 µM | 21 µM | 13 µM
C[C@@H](c1cc(O)c2c(c1)CC[C@H]1[C@H]2C[C@@H]2O[C@@]23CC=CC(=O)[C@]13C)[C@@H]1C[C@@H]2O[C@@H]2[C@H](O)O1 [SALPICHROLIDE G] | 5.1 µM | 14 µM | 3.4 µM | 14 µM | 5.7 µM
CC1=C(C)[C@H]([C@H]2O[C@@]3(O)C[C@H]4[C@@H](C[C@H]5O[C@]56CC=CC(=O)[C@]46C)[C@@H]4CC[C@@](O)([C@@H]2C)[C@]43C)OC1=O [TRECHONOLIDE A] | 3.9 µM | 4.3 µM | 1.9 µM | 6.3 µM | 3.1 µM
CC1=C(C)C(=O)O[C@@H]([C@](C)(O)[C@]2(O)CC[C@@]3(O)[C@@H]4C[C@H]5O[C@]56CC=CC(=O)[C@]6(C)[C@H]4CC[C@]23C)C1 [WITHANOLIDE E] | 0.31 µM | 0.16 µM | 0.71 µM | 0.24 µM | 0.42 µM
